Tested on: 885724-159-R-J1-PDC complex spheroid viability
Assay: Anticancer human tumor 885724-159-R-J1-PDC patient-derived pancreatic adenocarcinoma cell line growth inhibition [POLQ]
Settings: for IC50: curve of first compound; for viability, T/C: stronger effect = lower value
How it was run: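 Growth inhibition in 3D: complex spheroids (tumor PDC, HUVEC, MSC) treated with POLQ inhibitor combinations; where Cmax unknown, highest tested concentration 10 microM, except SN-38 at 1 microM.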

[1] = second compound 0.0316 µM, first compound 0.0316 µM
[2] = second compound 0.0316 µM, first compound 0.1 µM
[3] = second compound 0.0316 µM, first compound 0.316 µM
[4] = second compound 0.0316 µM, first compound 1 µM
[5] = second compound 0.0316 µM, first compound 3.16 µM
[6] = second compound 0.0316 µM, first compound 10 µM
[7] = second compound 0.1 µM, first compound 0.0316 µM
[8] = second compound 0.1 µM, first compound 0.1 µM
[9] = second compound 0.1 µM, first compound 0.316 µM
[10] = second compound 0.1 µM, first compound 1 µM
[11] = second compound 0.1 µM, first compound 3.16 µM
[12] = second compound 0.1 µM, first compound 10 µM
[13] = second compound 0.316 µM, first compound 0.0316 µM
[14] = second compound 0.316 µM, first compound 0.1 µM
[15] = second compound 0.316 µM, first compound 0.316 µM
[16] = second compound 0.316 µM, first compound 1 µM
[17] = second compound 0.316 µM, first compound 3.16 µM
[18] = second compound 0.316 µM, first compound 10 µM
[19] = second compound 1 µM, first compound 0.0316 µM
[20] = second compound 1 µM, first compound 0.1 µM
[21] = second compound 1 µM, first compound 0.316 µM
[22] = second compound 1 µM, first compound 1 µM
[23] = second compound 1 µM, first compound 3.16 µM
[24] = second compound 1 µM, first compound 10 µM
[25] = second compound 3.16 µM, first compound 0.0316 µM
[26] = second compound 3.16 µM, first compound 0.1 µM
[27] = second compound 3.16 µM, first compound 0.316 µM
[28] = second compound 3.16 µM, first compound 1 µM
[29] = second compound 3.16 µM, first compound 3.16 µM
[30] = second compound 3.16 µM, first compound 10 µM
[31] = second compound 10 µM, first compound 0.0316 µM
[32] = second compound 10 µM, first compound 0.1 µM
[33] = second compound 10 µM, first compound 0.316 µM
[34] = second compound 10 µM, first compound 1 µM
[35] = second compound 10 µM, first compound 3.16 µM
[36] = second compound 10 µM, first compound 10 µM
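Further: spheroids exposed to compounds for 7 days.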

With `CC(C)n1c(=O)n(C)c2cnc3cc(F)c(-c4ccc(OCCCN5CCCCC5)nc4)cc3c21` + Nc1ccc(C#CCN(C(=O)Cc2ncc(C(F)(F)F)cc2C(F)(F)F)c2ccc(F)cc2)nn1 the IC50 (second compound 0.0316 µM) was over 10 µM, the IC50 (second compound 0.1 µM) was over 10 µM and the IC50 (second compound 0.316 µM) was over 10 µM. The IC50 (second compound 1 µM) was over 10 µM, the IC50 (second compound 3.16 µM) was over 10 µM and the IC50 (second compound 10 µM) was over 10 µM. It also gave a viability, T/C [1] of 103%, a viability, T/C [2] of 103% and a viability, T/C [3] of 101%. It also gave a viability, T/C [4] of 98.2%, a viability, T/C [5] of 85.3% and a viability, T/C [6] of 81.5%. The viability, T/C [7] was 104%, the viability, T/C [8] was 94.9% and the viability, T/C [9] was 98%. It also gave a viability, T/C [10] of 98.9%, a viability, T/C [11] of 98.9% and a viability, T/C [12] of 93.7%. The viability, T/C [13] was 104%, the viability, T/C [14] was 102% and the viability, T/C [15] was 96.3%. It also gave a viability, T/C [16] of 94.5%, a viability, T/C [17] of 94% and a viability, T/C [18] of 87.7%. It also gave a viability, T/C [19] of 111%, a viability, T/C [20] of 104% and a viability, T/C [21] of 96.8%. It also gave a viability, T/C [22] of 97.8%, a viability, T/C [23] of 97% and a viability, T/C [24] of 84.9%. It also gave a viability, T/C [25] of 98.4%, a viability, T/C [26] of 104% and a viability, T/C [27] of 98.1%. For the same compound, the viability, T/C [28] was 101%, the viability, T/C [29] was 90% and the viability, T/C [30] was 92.1%. The viability, T/C [31] was 106%, the viability, T/C [32] was 97.4% and the viability, T/C [33] was 108%. For the same compound, the viability, T/C [34] was 103%, the viability, T/C [35] was 90.7% and the viability, T/C [36] was 73.7%.

Work on `CC1COCCN1c1cc(-c2ccnn2C)c2ccnc(-c3ccn[nH]3)c2n1` (stereo unspecified) + Nc1ccc(C#CCN(C(=O)Cc2ncc(C(F)(F)F)cc2C(F)(F)F)c2ccc(F)cc2)nn1 yielded an IC50 (second compound 0.0316 µM) of 0.298 µM, an IC50 (second compound 0.1 µM) of 0.275 µM and an IC50 (second compound 0.316 µM) of 0.267 µM. The IC50 (second compound 1 µM) was 0.178 µM, the IC50 (second compound 3.16 µM) was 0.275 µM and the IC50 (second compound 10 µM) was 0.458 µM. The viability, T/C [1] was 95.7%, the viability, T/C [2] was 60.6% and the viability, T/C [3] was 51%. It also gave a viability, T/C [4] of 43.9%, a viability, T/C [5] of 47.7% and a viability, T/C [6] of 44.4%. For the same compound, the viability, T/C [7] was 108%, the viability, T/C [8] was 60.8% and the viability, T/C [9] was 49.6%. For the same compound, the viability, T/C [10] was 48.1%, the viability, T/C [11] was 42.7% and the viability, T/C [12] was 39.5%. It also gave a viability, T/C [13] of 96.1%, a viability, T/C [14] of 58.4% and a viability, T/C [15] of 49.7%. It also gave a viability, T/C [16] of 47.5%, a viability, T/C [17] of 46.4% and a viability, T/C [18] of 39.1%. It also gave a viability, T/C [19] of 90%, a viability, T/C [20] of 52.3% and a viability, T/C [21] of 49%. The viability, T/C [22] was 47.5%, the viability, T/C [23] was 49.9% and the viability, T/C [24] was 38.4%. The viability, T/C [25] was 95.9%, the viability, T/C [26] was 61.5% and the viability, T/C [27] was 48.4%. The viability, T/C [28] was 45.2%, the viability, T/C [29] was 43.4% and the viability, T/C [30] was 43.8%. It also gave a viability, T/C [31] of 106%, a viability, T/C [32] of 64% and a viability, T/C [33] of 52.4%. It also gave a viability, T/C [34] of 49.3%, a viability, T/C [35] of 46.6% and a viability, T/C [36] of 42.5%.

Compound `CC1COCCN1c1cc(C2(S(C)(=N)=O)CC2)nc(-c2ccnc3[nH]ccc23)n1` (stereo unspecified) + Nc1ccc(C#CCN(C(=O)Cc2ncc(C(F)(F)F)cc2C(F)(F)F)c2ccc(F)cc2)nn1 has an IC50 (second compound 0.0316 µM) of over 10 µM, an IC50 (second compound 0.1 µM) of 7.07 µM and an IC50 (second compound 0.316 µM) of over 10 µM. For the same compound, the IC50 (second compound 1 µM) was 6.07 µM, the IC50 (second compound 3.16 µM) was 8 µM and the IC50 (second compound 10 µM) was over 10 µM. For the same compound, the viability, T/C [1] was 87.3%, the viability, T/C [2] was 89.6% and the viability, T/C [3] was 90.4%. The viability, T/C [4] was 75.9%, the viability, T/C [5] was 55.7% and the viability, T/C [6] was 50%. It also gave a viability, T/C [7] of 104%, a viability, T/C [8] of 94.5% and a viability, T/C [9] of 94%. It also gave a viability, T/C [10] of 71.5%, a viability, T/C [11] of 57.8% and a viability, T/C [12] of 46.7%. The viability, T/C [13] was 95.3%, the viability, T/C [14] was 97.2% and the viability, T/C [15] was 83.4%. For the same compound, the viability, T/C [16] was 63.4%, the viability, T/C [17] was 55.5% and the viability, T/C [18] was 53.2%. The viability, T/C [19] was 95.3%, the viability, T/C [20] was 85.1% and the viability, T/C [21] was 87.8%. It also gave a viability, T/C [22] of 75.9%, a viability, T/C [23] of 55.8% and a viability, T/C [24] of 45.4%. The viability, T/C [25] was 94.3%, the viability, T/C [26] was 88.6% and the viability, T/C [27] was 91.1%. For the same compound, the viability, T/C [28] was 69.9%, the viability, T/C [29] was 53.5% and the viability, T/C [30] was 48.4%. For the same compound, the viability, T/C [31] was 95.6%, the viability, T/C [32] was 99.7% and the viability, T/C [33] was 94.7%. It also gave a viability, T/C [34] of 64.1%, a viability, T/C [35] of 57.8% and a viability, T/C [36] of 47%.

Reference: PubChem BioAssay AID1963832 (Molecular Pharmacology Branch, DTP, NCI, 2024)
